Test results reported in patent US12162836B2, “N-acyl-{4-[(4-aryl-phenyl)sulfonylmethyl]piperidine} compounds and their therapeutic use” (Modern Biosciences Limited, priority 2019, dated 2024).

Experiments:
[1] = molecular target: hERG (Homo sapiens (Human), UniProt Q12809); test: hERG Ion Channel binding assay (3H astemizole displacement); conditions: human, membranes of HEK293 cells stably expressing hERG, pH 7.4, probe 3H astemizole (1.5 nM); Tested at 25 μM; displacement of 3H astemizole, hERG-HEK293 membranes
Chain of hERG (Q12809 whole entry): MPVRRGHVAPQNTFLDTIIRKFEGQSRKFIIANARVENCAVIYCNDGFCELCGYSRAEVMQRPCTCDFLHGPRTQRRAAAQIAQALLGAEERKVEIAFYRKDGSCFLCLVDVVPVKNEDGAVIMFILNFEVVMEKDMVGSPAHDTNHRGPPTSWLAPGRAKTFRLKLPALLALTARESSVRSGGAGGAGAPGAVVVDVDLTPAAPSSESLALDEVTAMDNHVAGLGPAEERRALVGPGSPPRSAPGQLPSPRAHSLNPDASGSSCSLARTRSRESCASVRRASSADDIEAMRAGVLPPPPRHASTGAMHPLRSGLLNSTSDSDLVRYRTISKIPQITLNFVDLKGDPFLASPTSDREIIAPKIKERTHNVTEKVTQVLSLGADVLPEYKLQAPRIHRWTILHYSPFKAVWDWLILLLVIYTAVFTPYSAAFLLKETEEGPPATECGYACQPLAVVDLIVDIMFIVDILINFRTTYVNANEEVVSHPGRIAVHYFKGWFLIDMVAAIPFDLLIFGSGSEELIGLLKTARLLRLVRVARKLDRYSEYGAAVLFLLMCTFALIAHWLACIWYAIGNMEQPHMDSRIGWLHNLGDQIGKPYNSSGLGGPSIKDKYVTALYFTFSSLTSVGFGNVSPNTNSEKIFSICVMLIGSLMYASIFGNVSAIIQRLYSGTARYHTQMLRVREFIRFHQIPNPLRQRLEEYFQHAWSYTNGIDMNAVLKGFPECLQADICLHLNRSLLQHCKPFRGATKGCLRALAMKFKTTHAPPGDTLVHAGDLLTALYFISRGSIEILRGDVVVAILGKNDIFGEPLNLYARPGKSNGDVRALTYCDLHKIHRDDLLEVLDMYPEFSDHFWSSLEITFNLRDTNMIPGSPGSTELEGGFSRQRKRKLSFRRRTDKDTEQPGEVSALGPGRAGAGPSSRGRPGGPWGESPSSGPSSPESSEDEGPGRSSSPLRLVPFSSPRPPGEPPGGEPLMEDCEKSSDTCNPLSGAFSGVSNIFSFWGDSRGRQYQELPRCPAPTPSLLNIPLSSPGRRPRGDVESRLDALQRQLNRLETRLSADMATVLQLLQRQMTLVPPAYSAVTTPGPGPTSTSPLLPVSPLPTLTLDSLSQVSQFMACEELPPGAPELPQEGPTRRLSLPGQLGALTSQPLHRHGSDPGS
Procedure: The activity of the compounds against the hERG ion channel was tested using a binding assay in stably transfected Human Embryonic Kidney cells (hERG-HEK293). hERG-HEK293 cells were cultured in MEM medium (Invitrogen)+10% FBS, glutamine and non-essential amino acids at 37° C. To prepare membranes, cells were homogenised on ice, centrifuged at 650×g for 10 minutes at +4° C., and the resulting supernatant centrifuged at 48000×g for 10 minutes at +4° C. The pellet was resuspended in ice-cold 50 mM Tris-HCl buffer, 5 mM KCl (pH 8.5) and stored frozen in aliquots until use.
For binding assays, membranes were thawed, re-suspended in assay buffer (10 mM HEPES pH 7.4, 0.1% BSA, 5 mM potassium chloride, 0.8 mM magnesium chloride, 130 mM sodium chloride, 1 mM sodium-EGTA, 10 mM glucose) and incubated with ^3H astemizole (1.5 nM), and with or without test compound at 25° C. for 60 minutes. Binding was determined following filtration of the membranes and washing in Tris-HCl buffer by scintillation counting of ^3H astemizole.
The degree of binding of compounds to the hERG ion channel (%) was obtained by measuring the binding of ^3H astemizole and its displacement by test compound. A value of 0% indicates no binding and a value of 100% indicates complete displacement of the radiolabelled ligand.

[2] = molecular target: CYP1A2 (Homo sapiens (Human), UniProt P05177); test: Human Cytochrome P450 Inhibition Assay (Bactosomes); type: in vitro ADME; conditions: recombinant Bactosomes, 10 minutes; read-out: IC50 CYP1A2
Chain of CYP1A2 (P05177 whole entry, canonical isoform): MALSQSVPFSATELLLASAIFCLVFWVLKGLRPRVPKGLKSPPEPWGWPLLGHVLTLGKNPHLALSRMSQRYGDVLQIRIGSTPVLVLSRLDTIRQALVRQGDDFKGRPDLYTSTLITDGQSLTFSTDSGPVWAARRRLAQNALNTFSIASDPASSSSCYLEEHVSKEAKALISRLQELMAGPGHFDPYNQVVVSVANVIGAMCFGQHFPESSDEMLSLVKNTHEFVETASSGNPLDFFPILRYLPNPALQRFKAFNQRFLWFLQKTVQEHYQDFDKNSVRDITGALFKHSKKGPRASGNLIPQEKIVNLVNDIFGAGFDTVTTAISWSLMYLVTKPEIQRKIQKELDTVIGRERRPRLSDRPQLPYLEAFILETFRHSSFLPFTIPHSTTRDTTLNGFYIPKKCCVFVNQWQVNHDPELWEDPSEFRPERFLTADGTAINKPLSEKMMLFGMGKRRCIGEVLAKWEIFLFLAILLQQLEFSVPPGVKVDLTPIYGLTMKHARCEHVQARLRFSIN
Procedure: (§1) The ability of test compounds to inhibit five of the most relevant cytochrome P450 enzymes was measured by determination of the activity of cytochrome P450 enzymes in recombinant cytochrome preparations, called Bactosomes (Cypex Ltd, Dundee, Scotland UK DD2 1 NH), in the presence of a specific probe substrate. Bactosomes are a highly efficient and cost-effective source of recombinant CYP450s which have a higher specific activity of enzyme compared to other sources, such as liver microsomes. […] The following CYP450 isoforms were assayed: CYP1A2, CYP2C9, CYP2C19, CYP2D6 and CYP3A4. The study of CYP450 inhibition potential in Bactosomes is accepted as a valuable model permitting rapid prediction of potential drug-drug interactions in vivo (see, e.g., Weaver et al., 2003).
(§2) Bactosomes were obtained from a commercial source (Cypex, Scotland, UK). Test compounds were incubated with Bactosomes at 6 concentrations. Samples were incubated for 10 minutes, after which the reaction was stopped and the samples analysed by LC-MS/MS Multiple Reaction Monitoring (MRM) for the presence/amount of substrate probe.
(§3) CYP450 enzymes (final protein 75 pmol/mL for CYP1A2; 12.5 pmol/mL for CYP2C19; and 25 pmol/mL for CYP2C9, 2D6 and 3A4), 0.1 M phosphate buffer pH 7.4, probe and test compound (final concentration 50, 15.8, 5, 1.58, 0.5 and 0.158 μM; diluted from 10 mM stock solution to give a final DMSO concentration of 1%) were pre-incubated at 37° C. for 5 minutes. The reaction was initiated by the addition of 20 μL of 10 mM NADPH in phosphate buffer. The final incubation volume was 200 μL. The following control inhibitors were used for each CYP450 inhibition assay: CYP1A2: α-naphthoflavone; CYP2C9: sulfaphenazole; CYP2C19: tranylcypromine; CYP2D6: quinidine; CYP3A4: ketoconazole.
(§4) Each compound was incubated for 10 minutes at 37° C. The reactions were stopped by the addition of methanol (final composition 1:1, aqueous: methanol). The incubation plates were shaken, chilled at […] for 2 hours, and centrifuged at 3500 rpm for 15 minutes at 4° C. to precipitate the protein.

[3] = molecular target: CYP2C19 (Homo sapiens (Human), UniProt P33261); test: as above; type: in vitro ADME; conditions: recombinant Bactosomes, 10 minutes
Chain of CYP2C19 (P33261 whole entry): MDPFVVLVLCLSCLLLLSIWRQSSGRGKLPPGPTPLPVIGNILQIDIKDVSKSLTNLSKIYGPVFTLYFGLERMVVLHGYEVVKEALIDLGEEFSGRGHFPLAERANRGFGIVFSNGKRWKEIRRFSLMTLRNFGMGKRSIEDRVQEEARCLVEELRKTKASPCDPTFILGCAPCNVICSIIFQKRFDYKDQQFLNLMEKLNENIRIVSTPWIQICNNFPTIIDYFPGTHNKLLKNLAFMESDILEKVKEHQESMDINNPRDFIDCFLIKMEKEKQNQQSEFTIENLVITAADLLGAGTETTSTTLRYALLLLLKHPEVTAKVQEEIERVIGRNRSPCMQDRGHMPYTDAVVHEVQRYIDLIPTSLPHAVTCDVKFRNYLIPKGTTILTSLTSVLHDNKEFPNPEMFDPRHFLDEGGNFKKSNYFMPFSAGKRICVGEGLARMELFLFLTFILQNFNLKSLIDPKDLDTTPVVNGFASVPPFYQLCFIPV
Procedure: as §1, §2, §3, §4

[4] = molecular target: CYP2C9 (Homo sapiens (Human), UniProt P11712); test: as above; type: in vitro ADME; conditions: recombinant Bactosomes, 10 minutes
Chain of CYP2C9 (P11712 whole entry): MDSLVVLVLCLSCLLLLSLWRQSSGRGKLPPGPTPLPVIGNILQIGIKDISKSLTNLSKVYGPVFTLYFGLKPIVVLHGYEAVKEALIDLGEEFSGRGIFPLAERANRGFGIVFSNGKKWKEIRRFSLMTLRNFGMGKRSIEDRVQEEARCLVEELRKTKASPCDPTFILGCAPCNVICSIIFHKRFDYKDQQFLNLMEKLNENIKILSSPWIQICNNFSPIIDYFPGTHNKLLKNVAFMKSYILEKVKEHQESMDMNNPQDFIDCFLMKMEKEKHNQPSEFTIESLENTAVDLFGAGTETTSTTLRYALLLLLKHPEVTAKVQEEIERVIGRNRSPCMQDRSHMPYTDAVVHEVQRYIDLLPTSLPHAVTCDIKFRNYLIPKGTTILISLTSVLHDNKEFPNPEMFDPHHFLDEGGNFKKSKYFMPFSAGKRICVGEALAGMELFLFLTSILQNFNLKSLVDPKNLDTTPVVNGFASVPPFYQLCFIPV
Procedure: as §1, §2, §3, §4

[5] = molecular target: CYP2D6 (Homo sapiens (Human), UniProt P10635); test: as above; type: in vitro ADME; conditions: recombinant Bactosomes, 10 minutes
Chain of CYP2D6 (P10635 whole entry): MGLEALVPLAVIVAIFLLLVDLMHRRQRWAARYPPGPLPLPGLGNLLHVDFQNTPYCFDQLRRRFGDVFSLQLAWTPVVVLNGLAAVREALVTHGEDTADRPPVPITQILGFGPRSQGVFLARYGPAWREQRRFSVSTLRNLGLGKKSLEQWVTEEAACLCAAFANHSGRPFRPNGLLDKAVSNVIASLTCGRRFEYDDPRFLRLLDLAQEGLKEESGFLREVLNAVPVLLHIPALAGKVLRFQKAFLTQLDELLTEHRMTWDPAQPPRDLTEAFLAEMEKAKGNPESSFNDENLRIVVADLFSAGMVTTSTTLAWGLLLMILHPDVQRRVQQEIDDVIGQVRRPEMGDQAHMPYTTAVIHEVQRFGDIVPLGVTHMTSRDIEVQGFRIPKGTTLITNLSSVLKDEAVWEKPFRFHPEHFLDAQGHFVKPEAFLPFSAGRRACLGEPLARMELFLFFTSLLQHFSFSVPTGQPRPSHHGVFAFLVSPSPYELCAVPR
Procedure: as §1, §2, §3, §4

[6] = molecular target: CYP3A4 (Homo sapiens (Human), UniProt P08684); test: as above; type: in vitro ADME; conditions: recombinant Bactosomes, 10 minutes
Chain of CYP3A4 (P08684 whole entry): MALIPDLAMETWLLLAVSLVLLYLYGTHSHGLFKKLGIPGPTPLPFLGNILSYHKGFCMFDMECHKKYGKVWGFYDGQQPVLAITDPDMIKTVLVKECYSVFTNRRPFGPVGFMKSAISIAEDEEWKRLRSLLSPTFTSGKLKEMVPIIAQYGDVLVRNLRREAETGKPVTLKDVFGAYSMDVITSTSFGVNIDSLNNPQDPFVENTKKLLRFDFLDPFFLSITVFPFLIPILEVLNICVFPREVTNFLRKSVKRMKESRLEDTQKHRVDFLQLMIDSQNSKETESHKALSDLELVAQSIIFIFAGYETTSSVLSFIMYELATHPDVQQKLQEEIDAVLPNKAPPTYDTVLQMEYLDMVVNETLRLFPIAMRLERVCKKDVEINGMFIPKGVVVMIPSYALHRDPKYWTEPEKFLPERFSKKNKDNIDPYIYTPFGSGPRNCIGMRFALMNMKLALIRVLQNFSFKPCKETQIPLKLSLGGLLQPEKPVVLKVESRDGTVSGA
Procedure: as §1, §2, §3, §4

[7] = test system: collagen-induced arthritis in DBA/1j mice; test: Mouse Collagen-Induced Arthritis; type: in vivo; conditions: 10 mg/kg/day, once daily for 14 days, oral gavage; arthritic index vs control
Procedure: Seven- to eight-week-old male DBA/1j mice were used for all procedures. Animals were housed in groups of 10, and were maintained at 21° C.±2° C. on a 12-hour light/dark cycle with food and water ad libitum. Complete Freund's adjuvant (CFA) was prepared by emulsifying bovine type II collagen at 4 mg/mL with a 4 mg/mL suspension of Mycobacterium tuberculosis H37Ra in Incomplete Freund's Adjuvant (IFA) (0.85 mL paraffin oil and 0.15 mL mannide monooleate) in a 1:1 (v/v) ratio. All mice were immunised subcutaneously with 200 μg of bovine type II collagen in CFA. 21 days later, all mice were immunised subcutaneously with 100 μg of bovine type II collagen in IFA. The mice started to develop signs and symptoms of arthritis following the ‘booster’ immunisation.
For macroscopic assessment of arthritis, the following signs were monitored in each paw of each mouse three times per week and summed to generate the Arthritic Index (A1) (the maximum A1 for one animal is 16): • 0=no visible effects of arthritis. • 1=oedema and/or erythema of 1 digit. • 2=oedema and/or erythema of 2 digits. • 3=oedema and/or erythema of more than 2 digits. • 4=severe arthritis of entire paw and digits.
Animals were sorted into treatment groups with a mean arthritic index of 2.5 and then dosed once daily for 14 days with compound: by oral gavage for test compounds, or by subcutaneous injection at a dose of 10 mg/kg for the positive control, etanercept. After completion of the experiment, the mice were sacrificed.
The data were analysed by generating an average of the arthritic index across each treatment group. The mean arthritic index was then compared to the arthritic index of control (untreated) animals using the following formula to generate a percentage inhibition of disease.

In the case of C[C@]1(O)CC[C@H](NS(=O)(=O)c2ccc(-c3ccc(Cl)cc3C#N)cc2)CC1 [HMC-C-01-A, reference compound], the inhibition at 60 min, 25 µM [1] is reported as 18%, the IC50 [2] is reported as 25 µM and the IC50 [3] is reported as over 25 µM. It also gave an IC50 [4] of 21 µM, an IC50 [5] of 16.6 µM and an IC50 [6] of over 25 µM. For the same compound, the “% inhibition of disease” value [7] was 40%.
